Assay results reported in patent publication US20220306640A1, “HYDANTOIN DERIVATIVE” (ONO PHARMACEUTICAL CO., LTD., priority 2019, published 2022).
pIC50: −log10 of the molar value. Counter-ions that a name gives are not always drawn.

Columns and labels:
DDR1 = biological target: T1, DDR1 (Homo sapiens, UniProt Q08345); test: Measurement of DDR1 inhibitory activity (LanthaScreen system, in vitro test); assay type: binding; conditions: GST-DDR1, Kinase tracer 178
T1 construct: purchased Invitrogen
Method: Biological Experiment Example 1: Measurement of an DDR1 Inhibitory Activity (In Vitro Test)
An DDR1 enzyme inhibitory activity was measured by using LanthaScreen (registered trademark) system (Invitrogen) based on the attached instruction. The reagents used are shown below.
Assay buffer: 5× Kinase buffer A (Invitrogen) was diluted 5-fold with ddH2O.
1× Kinase Buffer A: 50 mmol/L HEPES pH 7.5, 10 mmol/L MgCl2, 1 mmol/L EGTA, 0.01% Brij-35.
2×DDR1 Solution: a solution containing […] GST-DDR1 (Invitrogen) was prepared by using Assay buffer.
2× Tracer/antibody solution: a solution containing 20 nmol/L Kinase tracer 178 (Invitorgen) and […] Eu-Anti-GST Antibody (Invitorogen) was prepared by using Assay buffer. Test compound solution: a solution containing a test compound of 2-fold concentration with respect to the final concentration was prepared by 50-fold diluting a DMSO solution of test compound of each concentration with the Assay buffer.
• 1 Add 5 μL 2×DDR1 Solution to proxiplate (PerkinElmer) • 2 Add 5 μL test compound solution to proxiplate • 3 Incubate for 15 min at RT • 4 Add 5 μL 2× Tracer/Antibody solution to all well Incubate 1 h at RT • 6 Read LANCE Eu on Envision (PerkinElmer) (Ex: 320 nm/Em 665 nm & 615 nm)
In the low control group, 5 μL Assay buffer was added instead of 5 μL 2×DDR1 Solution and the final 1% DMSO solution was added instead of test compound solution.
In the high control group, the final 1% DMSO solution was added instead of test compound solution.
(§1) The inhibition rate (%) in the test compound group was calculated based on the following mathematical formula.
% inhibition=100−100*(assay value of test compound−A)/(B−A) [Math. 1]
A: average value of low control group B: average value of high control group
Values of 50% inhibition rate (IC50 values) of the test compound were calculated from the inhibition curve based on the inhibition rate of the test compounds in each concentration.

[1] = biological target: T2, DDR1 phosphorylation in T-47D (ATCC, HTB-133) cells (Homo sapiens, UniProt Q08345); test: Measurement of DDR1 phosphorylation suppression rate by using T-47D cells (p-DDR1 ELISA); assay type: cell-based; conditions: collagen Type I 10 μg/ml, p-DDR1 (panTyr) ELISA
T2 construct: host or cells: T-47D
Method: Biological Example 2: Measurement of DDR1 Phosphorylation Suppression Rate by Using T-47D (ATCC, HTB-133) cells
T-47D cells should be in culture for at least 7 days before using in the assay.
Cell culture medium: RPMI 1640 (HyClone) containing 10% Heat-FBS (HyClone) was prepared.
Assay medium: RPMI 1640 containing 0.1% BSA (solarbio) was prepared.
Collagen Type I (rat tail) solution: Assay medium containing 200 μg/mL Collagen I, rat tail (Gibco) was prepared.
Cell lysis buffer: a solution containing IX cell lysis buffer (CST) and 1× protease and phosphatase inhibitor cocktail (Thermofisher) was prepared by using ddH2O.
• 1. Collect cells into tubes and centrifuge at 1200 rpm for 5 min, at room temperature. Re-suspend the cells in cell culture medium pre-warmed to room temperature. • 2. Count cells and suspend at a density of 2×10^5/ml of cell culture medium. Plate the cells at 100 μL per well (Corning 3599 96-well plate, 2×10^4 cells per well final), mixing the cells well between each draw of the pipettor. • 3. Put lid on cell plate and place into the incubator at 37° C., 5% CO2 • 4. Culture cell overnight
• 1. Remove the plate from the incubator • 2. Cell medium is replaced with the 90 μL Assay medium.
• 1. Compound plates are pre-titrated using DMSO (10-fold dilution for 6 points) • 2. Dilute test compound using assay medium; Transfer 1 μL compound to other 96 well plate and then add 49 μL assay medium to each well (50 fold dilution). • 3. Add 5 μL the diluted test compound solution to the appropriate wells by pipettor. Compound final concentration is start from […] and DMSO final concentration is 0.1 • 4. Tap the plates gently to mix in compound. Reseal the plate with a lid and place in the incubator again, for 24 h.
• 1. Diluted collagen Type I in assay medium to the 200 μg/ml concentration • 2. Using the pipettor adds 5 μL of 200 μg/mL collagen Type I solution to the cell plate (compound well and High control well, collagen final conc. is 10 μg/ml). Add assay medium buffer to the control wells (low control well) • 3. Reseal the plate with a lid and place in the incubator. Incubate 24 h for collagen type I
• 1. After incubation, add 100 µL per well Cell lysis buffer. • 2. Incubate 30 min on ice, then freezing to −80° C. to get the fully cell lysates. • 3. Transfer cell lysates to new plate • 4. Centrifuge for 30 min (×4000 rpm) at 4° C. Then transfer the supernatant to a new plate.
p-DDR1 (panTyr) ELISA kit (CST) was used in the study. The measurement was carried out according to the attached instruction.
as §1
% inhibition=100−100*(assay value of test compound−A)/(B−A) [Math. 2]
A: average value of low control group B: average value of high control group Values of 50% inhibition rate (IC50 values) of the test compound were calculated from the inhibition curve based on the inhibition rate of the test compounds in each concentration.

T2 sequence (Q08345 19-913): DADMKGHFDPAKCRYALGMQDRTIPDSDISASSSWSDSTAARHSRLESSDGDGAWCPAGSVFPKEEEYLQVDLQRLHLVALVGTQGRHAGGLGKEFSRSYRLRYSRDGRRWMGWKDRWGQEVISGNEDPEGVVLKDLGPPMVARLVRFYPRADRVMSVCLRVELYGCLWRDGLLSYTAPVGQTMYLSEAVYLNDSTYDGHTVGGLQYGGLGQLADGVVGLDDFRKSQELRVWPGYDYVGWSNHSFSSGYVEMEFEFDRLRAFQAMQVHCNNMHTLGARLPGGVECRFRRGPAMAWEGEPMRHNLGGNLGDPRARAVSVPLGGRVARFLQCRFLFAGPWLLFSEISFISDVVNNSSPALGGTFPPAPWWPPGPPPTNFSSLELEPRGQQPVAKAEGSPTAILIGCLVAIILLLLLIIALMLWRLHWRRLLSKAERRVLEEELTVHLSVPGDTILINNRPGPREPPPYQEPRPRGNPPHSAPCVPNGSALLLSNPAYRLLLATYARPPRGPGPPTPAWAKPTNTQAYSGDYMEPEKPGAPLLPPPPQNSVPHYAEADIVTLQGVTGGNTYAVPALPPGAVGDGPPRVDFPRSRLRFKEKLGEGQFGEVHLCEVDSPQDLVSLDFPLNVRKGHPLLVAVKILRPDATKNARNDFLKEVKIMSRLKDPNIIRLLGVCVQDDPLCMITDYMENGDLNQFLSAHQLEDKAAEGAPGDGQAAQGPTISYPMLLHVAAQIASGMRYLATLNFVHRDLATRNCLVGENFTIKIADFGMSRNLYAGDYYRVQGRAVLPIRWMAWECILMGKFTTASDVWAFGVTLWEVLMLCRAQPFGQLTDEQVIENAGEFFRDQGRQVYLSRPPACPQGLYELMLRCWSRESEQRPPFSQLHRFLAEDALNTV
T1 sequence (Q08345 19-913): as above

Compound | pIC50 (DDR1) | pIC50 [1]
O=C1CN(c2cncc(C(F)(F)F)c2)C(=O)N1[C@H]1CC[C@H](Oc2ncnc3[nH]ccc23)CC1 (stereo in doubt) [Example 3(17), 3-[trans-4-(7H-pyrrolo[2,3-d]pyrimidin-4-yloxy)cyclohexyl]-1-[5-(trifluoromethyl)-3-pyridinyl]-2,4-imidazolidinedione] | 8.30 | 8.05
CS(=O)(=O)c1cc(N2CC(=O)N(c3ccc(Oc4cnc5[nH]ncc5c4)cc3)C2=O)cc(C(F)(F)F)c1 [Example 1(28), 1-[3-(methylsulfonyl)-5-(trifluoromethyl)phenyl]-3-[4-(1H-pyrazolo[3,4-b]pyridin-5-yloxy)phenyl]-2,4-imidazolidinedione] | 8.70 | 8.70
Nc1ncc(Oc2ccc(N3C(=O)CN(c4cncc(C(F)(F)F)c4)C3=O)cc2)cn1 [Example 1, 3-{4-[(2-amino-5-primidinyl)oxy]phenyl}-1-[5-(trifluoromethyl)-3-pyridinyl]-2,4-imidazolidinedione] | 8.52 | 8.70
COc1cc2nccc(Oc3ccc(N4C(=O)CN(c5cncc(C(F)(F)F)c5)C4=O)cc3C3CN(C(=O)OC(C)(C)C)C3)c2cc1OC [Example 2(2), 2-methyl-2-propanyl 3-(2-[(6,7-dimethoxy-4-quinolinyl)oxy]-5-{2,5-dioxo-3-[5-(trifluoromethyl)-3-pyridinyl]-1-imidazolidinyl}phenyl)-1-azetidinecarboxylate] | 6.70 | 7.30
CC(C)c1cc(N2C(=O)CN(c3cc(C(F)(F)F)cn(C)c3=O)C2=O)ccc1Oc1ccnc2cc(OCCCS(C)(=O)=O)ccc12 [Example 2(6), 3-[3-isopropyl-4-({7-[3-(methylsulfonyl)propoxy]-4-quinolinyl}oxy)phenyl]-1-[1-methyl-2-oxo-5-(trifluoromethyl)-1,2-dihydro-3-pyridinyl]-2,4-imidazolidinedione] | 8.00 | 8.22
COc1ccc2c(O[C@H]3CC[C@H](N4C(=O)CN(c5cncc(C(F)(F)F)c5)C4=O)CC3)ncnc2c1 [Example 2(19), 3-{trans-4-[(7-methoxy-4-quinazolinyl)oxy]cyclohexyl}-1-[5-(trifluoromethyl)-3-pyridinyl]-2,4-imidazolidinedione] | 8.52 | 9.00
O=C1CN(c2cc(F)cc(C(F)(F)F)c2)C(=O)N1[C@H]1CC[C@H](Oc2cnc3ccsc3c2)CC1 [Example 2(125), 1-[3-fluoro-5-(trifluoromethyl)phenyl]-3-[trans-4-(thieno[3,2-b]pvridin-6-yloxy)cyclohexyl]-2,4-imidazolidinedione] | 7.70 | 8.30
Nc1nccc(Nc2ccc(N3C(=O)CN(c4cccc(OC(F)(F)F)c4)C3=O)cc2Br)c1N [Example 2(163), 3-{3-bromo-4-[(2,3-diamino-4-pyridinyl)amino]phenyl}-1-[3-(trifluoromethoxy)phenyl]-2,4-imidazolidinedione] | – | 8.22
CCc1cc(N2C(=O)N(c3cncc(C(F)(F)F)c3)CC2O)ccc1Oc1ccnc2[nH]c(=O)cnc12 (centres unmarked) [Example 5(46), 8-(2-ethyl-4-{5-hydroxy-2-oxo-3-[5-(trifluoromethyl)-3-pyridinyl]-1-imidazolidinyl}phenoxy)pyrido[2,3-b]pyrazin-3(4H)-one] | 8.70 | –
C=Cc1cc(N2C(=O)CN(c3cncc(C(F)(F)F)c3)C2=O)ccc1N1CCCc2cnccc21 [Example 8(1), 3-[4-(3,4-dihydro-1,6-naphthyridin-1(2H)-yl)-3-vinylphenyl]-1-[5-(trifluoromethyl)-3-pyridinyl]-2,4-imidazolidinedione] | 7.10 | –
O=C1CN(c2cncc(C(F)(F)F)c2)C(=O)N1c1ccc(N2CCCc3cnccc32)c(Br)c1 [Example 8, 3-[3-bromo-4-(3,4-dihydro-1,6-naphthyridin-1(2H)-yl)phenyl]-1-[5-(trifluoromethyl)-3-pyridinyl]-2,4-imidazolidinedione] | – | 7.15
CC(c1ccnc2[nH]ccc12)N1CCC(N2C(=O)CN(c3cncc(C(F)(F)F)c3)C2=O)CC1 (centres unmarked) [Example 10(1), 3-{1-[1-(1H-pyrrolo[2,3-b]pyridin-4-yl)ethyl]-4-piperidinyl}-1-[5-(trifluoromethyl)-3-pyridinyl]-2,4-imidazolidinedione] | – | 8.00
COc1ccc2c(CN3CCC(N4C(=O)CN(c5cncc(C(F)(F)F)c5)C4=O)CC3)ccnc2c1 [Example 10, 3-{1-[(7-methoxy-4-quinolinyl)methyl]-4-piperidinyl}-1-[5-(trifluoromethyl)-3-pyridinyl]-2,4-imidazolidinedione] | 7.22 | –
O=C1CN(c2cncc(C(F)(F)F)c2)C(=O)N1[C@H]1CC[C@H](Oc2cnc3[nH]nc(OCCO)c3c2)CC1 [Example 36(7), 3-(trans-4-{[3-(2-hydroxyethoxy)-1H-pyrazolo[3,4-b]pyridin-5-yl]oxy}cyclohexyl)-1-[5-(trifluoromethyl)-3-pyridinyl]-2,4-imidazolidinedione] | – | 10.00
CC(C)(O)c1cc2c(OC34CCC(N5C(=O)CN(c6cncc(C(F)(F)F)c6)C5=O)(CC3)C4)ncnc2[nH]1 [Example 39, 3-(4-{[6-(2-hydroxy-2-propanyl)-7H-pyrrolo[2,3-d]pyrimidin-4-yl]oxy}bicyclo[2.2.1]hept-1-yl)-1-[5-(trifluoromethyl)-3-pyridinyl]-2,4-imidazolidinedione trifluoroacetate (1:1)] | – | 8.00
O=C1CN(c2cncc(C(F)(F)F)c2)C(=O)N1C12CCC(Oc3ncnc4[nH]cc(Cl)c34)(CC1)C2 [Example 42(2), 3-{4-[(5-chloro-7H-pyrrolo[2,3-d]pyrimidin-4-yl)oxy]bicyclo[2.2.1]hept-1-yl}-1-[5-(trifluoromethyl)-3-pyridinyl]-2,4-imidazolidinedione] | – | 7.70
N#Cc1cncc(N2CC(=O)N(C34CCC(Oc5ncnc6[nH]ccc56)(CC3)C4)C2=O)c1 [Example 42(7), 5-{2,4-dioxo-3-[4-(7H-pyrrolo[2,3-d]pyrimidin-4-yloxy)bicyclo[2.2.1]hept-1-yl]-1-imidazolidinyl}nicotinonitrile] | – | 6.70
N#Cc1cccc(N2CC(=O)N(C34CCC(Oc5ncnc6[nH]ccc56)(CC3)C4)C2=O)c1 [Example 42(9), 3-{2,4-dioxo-3-[4-(7H-pyrrolo[2,3-d]pyrimidin-4-yloxy)bicyclo[2.2.1]hept-1-yl]-1-imidazolidinyl}benzonitrile] | – | 7.70
O=C1CN(c2cncc(C(F)(F)F)c2)C(=O)N1C12CCC(Oc3ccnc4[nH]ncc34)(CC1)C2 [Example 43, 3-[4-(1H-pyrazolo[3,4-b]pyridin-4-yloxy)bicyclo[2.2.1]hept-1-yl]-1-[5-(trifluoromethyl)-3-pyridinyl]-2,4-imidazolidinedione] | – | 8.22
